According to patent US20110189669A1, “METHODS OF AIDING IN THE DIAGNOSIS OF PROSTATE CANCER” (IMPERIAL INNOVATIONS LIMITED, priority 2008, published 2011):

Columns and labels:
GNMT = settings: cited from earlier work
LNCaP cells [1] = test: LNCaP cell growth (Sulphorhodamine B cell staining / cell numbers); format: cell-based
Method: A) LNCaP cell growth is stimulated by the synthetic androgen R1881 (1 nM), as measured using the Sulphorhodamine B cell staining assay.
LNCaP cells were cultured in the absence or presence of 1 nM R1881 and increasing concentrations of SAH for 6 days at which point cell numbers were measured.
Biological methylation reactions which utilise S-adenosylmethionine (SAM) as a methyl donor encompass several key cellular and metabolic processes and include the methylation of phospholipids, proteins, DNA and RNA. This class of reaction is carried out by methyltransferases that are represented by a diverse group of distantly related proteins (8-10), with domains that catalyse the transfer of the methyl group from SAM to a molecular substrate, together with the in-situ generation of SAH. For most methyltransferases, SAH is known to have a higher affinity than SAM for the catalytic site, thereby acting as a potent feedback inhibitor of methyltransferase activity within the cell. […] In most tissues, the balance between SAM and SAH and the subsequent regulation of global methylation activity resides in the ability to rapidly metabolise SAH through the enzyme S-adenosylhomocysteine hydrolase (SAH hydrolase). […] GNMT is a phylogenetically conserved enzyme (12) that methylates Glycine to produce N-Methyl Glycine (sarcosine), which is known to be largely physiologically inert, and also generates SAH. […]

LNCaP cells [2] = test: gene expression microarray of androgen-regulated genes in LNCaP cells; format: cell-based
Method: Microarray analysis was carried out on RNAs prepared from three bioreplicate cultures for the no ligand and R1881 treatments.
In order to identify androgen-regulated genes in LNCaP cells, we have performed gene expression microarray profiling using the Applied Biosystems Genome Survey Microarray V2.0. […] These genes include known androgen-responsive genes, including PSA (KLK3), KLK2, DRG-1 and TMPRSS2.
Detailed time course studies were undertaken to determine the time of androgen treatment for optimal expression of androgen-responsive genes (PSA and DRG-1) in the LNCaP cells (FIG. 1A-D). On the basis of these studies, RNA from […] bio-replicate cultures were prepared from LNCaP cells treated with androgen for 24 hours, as well as the no ligand control. The RNAs were subjected to RNA quality assays and validated by real-time RT-PCR for two control genes (GAPDH and RPLPO) and the androgen regulated genes PSA, DRG-1 and GREB-1. […] Three replicates from each treatment set were subsequently used for hybridisation to the Applied Biosystems (ABI) Human Genome Survey Microarray V2.0, which has probes for 29,098 genes, representing the most comprehensive coverage currently available for any human gene expression microarray platform. Raw data were quality assessed and filtered according to the recommendations supplied by the ABI1700 Data Analysis User Guide and the filtered data “vsn normalised” (4). Differential expression was assessed using liner models and empirical Bayes algorithms as described in (5). This analysis has robustly defined 456 probes whose expression was stimulated by androgen by two fold or greater, with positive lod scores (B values) for differential expression.

| SMILES | inhibition of GNMT (literature statement) (GNMT) | effect on androgen-stimulated growth of LNCaP cells (LNCaP cells [1]; 1 nM R1881 plus increasing concentrations of SAH, 6 days) | up-regulation of DRG-1 expression (LNCaP cells [2]; 24 hours androgen treatment) [fold] | up-regulation of KLK2 expression (LNCaP cells [2]; 24 hours androgen treatment) [fold] | up-regulation of PSA (KLK3) expression (LNCaP cells [2]; 24 hours androgen treatment) [fold] | up-regulation of TMPRSS2 expression (LNCaP cells [2]; 24 hours androgen treatment) [fold] | increase in GNMT gene expression (LNCaP cells [2]; within 24 hours of androgen treatment) [fold] | LNCaP cell growth (LNCaP cells [1]; R1881 1 nM, Sulphorhodamine B assay) |
| --- | --- | --- | --- | --- | --- | --- | --- | --- |
| Nc1ncnc2c1ncn2[C@@H]1O[C@H](CSCC[C@H](N)C(=O)O)[C@@H](O)[C@H]1O [SAH, S-adenosyl-homocysteine] | relatively insensitive | potentiates the androgen-stimulated growth |  |  |  |  |  |  |
| Nc1nc2ncc(CNc3ccc(C(=O)N[C@@H](CCC(=O)O)C(=O)O)cc3)nc2c(=O)[nH]1 [Folic acid] | allosteric inhibitor |  |  |  |  |  |  |  |
| C[C@]1(O)CC[C@H]2[C@@H]3CCC4=CC(=O)CCC4=C3C=C[C@@]21C [R1881] |  |  | 24 | 32 | 30 | 16 | 16 | stimulated |
